Like-named read-outs stand apart in the source and are kept apart here.

The target of the experiment is T1, Leucine-rich repeat serine/threonine-protein kinase 2 (LRRK2), WD-40 repeat (WDR) domain (Homo sapiens, UniProt Q5S007).
T1 construct: WD-40 repeat (WDR) domain
T1 sequence (Q5S007 2142-2527): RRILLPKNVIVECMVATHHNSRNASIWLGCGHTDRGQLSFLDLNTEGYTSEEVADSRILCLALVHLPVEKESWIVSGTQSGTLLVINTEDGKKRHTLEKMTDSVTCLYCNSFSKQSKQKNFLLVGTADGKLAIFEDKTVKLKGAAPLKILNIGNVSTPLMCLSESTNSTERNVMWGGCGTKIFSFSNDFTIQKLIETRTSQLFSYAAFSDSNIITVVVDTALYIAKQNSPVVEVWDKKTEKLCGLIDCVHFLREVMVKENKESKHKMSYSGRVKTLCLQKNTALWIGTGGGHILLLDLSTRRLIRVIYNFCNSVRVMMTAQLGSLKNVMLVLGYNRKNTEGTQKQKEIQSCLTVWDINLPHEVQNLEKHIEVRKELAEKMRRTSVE
The experiment is described as follows: SPR. In kind it is binding.

The Kd is a measure of binding affinity in units of concentration. For the molecule `O=C(CN1CCC2(C1)C(=O)Nc1ccccc12)Nc1ccc2c(c1)CCC2` (centres unmarked) [CACHE_1181_33], the Kd was over 100 µM. For `O=C(NCc1ccc[nH]c1=O)N1CCC(CCc2ccc(F)cc2F)CC1` [CACHE_1181_50], the Kd (read-out: Kd) is over 100 µM.

The values above are taken from publication PMC11683865, “CACHE Challenge #1: Docking with GNINA Is All You Need” (Journal of Chemical Information and Modeling, 2024).
